According to patent US11730778B2, “Method of increasing the level and production of metabolized phytonutrients in a subject” (ACCESS BUSINESS GROUP INTERNATIONAL LLC, priority 2019, dated 2023):

Tested on: intestinal microbiota (fecal samples) of human subjects
Assay: in-vitro fermentations of fecal samples (intestinal microbiota-representing microarray) with phytonutrient precursor compounds
Assay type: in vitro ADME
Conditions: in-vitro fermentation; for Phytonutrient Producer Status: conversion of the phytonutrient precursor compound, S1: fecal sample of Subject 1 (S1); for Phytonutrient Producer Status: conversion of the phytonutrient precursor compound, S2: fecal sample of Subject 2 (S2); for Phytonutrient Producer Status: conversion of the phytonutrient precursor compound, S3: fecal sample of Subject 3 (S3); for Phytonutrient Producer Status: conversion of the phytonutrient precursor compound, S4: fecal sample of Subject 4 (S4); for Phytonutrient Producer Status: conversion of the phytonutrient precursor compound, S5: fecal sample of Subject 5 (S5); for Phytonutrient Producer Status: conversion of the phytonutrient precursor compound, S6: fecal sample of Subject 6 (S6); for Phytonutrient Producer Status: conversion of the phytonutrient precursor compound, S7: fecal sample of Subject 7 (S7); for Phytonutrient Producer Status: conversion of the phytonutrient precursor compound, S8: fecal sample of Subject 8 (S8); for Phytonutrient Producer Status: conversion of the phytonutrient precursor compound, S9: fecal sample of Subject 9 (S9); for Phytonutrient Producer Status: conversion of the phytonutrient precursor compound, S10: fecal sample of Subject 10 (S10); for Phytonutrient Producer Status: conversion of the phytonutrient precursor compound, S11: fecal sample of Subject 11 (S11)
Protocol: The phytonutrient producer status of 11 human subjects (“Subjects 1-11”, or “S1”-“S11”, respectively) was assessed by determining the microbial metabolism of various phytonutrient precursor compounds. […] The metabolism of the phytonutrient precursor compound in each assay was then determined via monitoring conversion (+), partial conversion (±), or no conversion (−) of the phytonutrient precursor compound over time.

Compound | Phytonutrient Producer Status: conversion of the phytonutrient precursor compound, S1 | Phytonutrient Producer Status: conversion of the phytonutrient precursor compound, S2 | Phytonutrient Producer Status: conversion of the phytonutrient precursor compound, S3 | Phytonutrient Producer Status: conversion of the phytonutrient precursor compound, S4 | Phytonutrient Producer Status: conversion of the phytonutrient precursor compound, S5 | Phytonutrient Producer Status: conversion of the phytonutrient precursor compound, S6 | Phytonutrient Producer Status: conversion of the phytonutrient precursor compound, S7 | Phytonutrient Producer Status: conversion of the phytonutrient precursor compound, S8 | Phytonutrient Producer Status: conversion of the phytonutrient precursor compound, S9 | Phytonutrient Producer Status: conversion of the phytonutrient precursor compound, S10 | Phytonutrient Producer Status: conversion of the phytonutrient precursor compound, S11
OC[C@H]1O[C@@H](Oc2cc3c(O)cc(O)cc3[o+]c2-c2ccc(O)c(O)c2)[C@H](O)[C@@H](O)[C@@H]1O [Cyanidin-3-glucoside] | ± | ± | + | ± | ± | + | + | ± | + | + | +
O=c1oc2c(O)c(O)cc3c(=O)oc4c(O)c(O)cc1c4c23 [Ellagic acid] | ± | ± | ± | − | − | − | − | ± | − | ± | −
Oc1cc(O)c2c(c1)O[C@H](c1cc(O)c(O)c(O)c1)[C@H](O)C2 [Epigallocatechol] | + | + | ± | + | + | + | + | + | + | + | +
COc1ccc([C@@H]2CC(=O)c3c(O)cc(O[C@@H]4O[C@H](CO[C@@H]5O[C@@H](C)[C@H](O)[C@@H](O)[C@H]5O)[C@@H](O)[C@H](O)[C@H]4O)cc3O2)cc1O [Hesperidin] | + | + | + | + | ± | + | + | + | + | + | +
O=c1c(O)c(-c2ccc(O)c(O)c2)oc2cc(O)cc(O)c12 [Quercetin] | − | + | + | + | − | + | + | − | − | + | −
COc1cc(C[C@@H](CO[C@@H]2O[C@H](CO)[C@@H](O)[C@H](O)[C@H]2O)[C@H](CO[C@@H]2O[C@H](CO)[C@@H](O)[C@H](O)[C@H]2O)Cc2ccc(O)c(OC)c2)ccc1O [Secoisolariciresinol diglucoside] | + | + | ± | + | + | ± | ± | ± | + | + | +
